Experiments:
S. ramocissimus R1V [1] = test: regeneration of protoplasts on regeneration medium; type: cell-based; conditions: for Regeneration efficiency of protoplasts: regeneration medium
Method: (§1) Spores were isolated essentially as described by D. Hopwood et al. (cited above), and used to inoculate YMG medium (yeast extract 4 g/l, malt extract 10 g/l, glucose 4 g/l) containing 0.5% glycine. Protoplasts were obtained by lysozyme treatment of this culture, transformed as described by D. Hopwood et al. (cited above) with plasmid pMTST1VΔS and pMTST1TΔS. Subsequently the transformed protoplasts were spread on regeneration medium, and incubated at 30°C. Regeneration medium was prepared by mixing equal volumes of sporulation medium and stabilizer medium. Stabilizer medium consisted of NaNO₃ 3 g/l, K₂HPO₄.3H₂O 0.085 g/l, K₂SO₄ 0.25 g/l, FeSO₄.7H₂O 0.01 g/l, trace element solution 0.1 ml, Tris 3.03 g/l, NaCl 2.92 g/l, sucrose 103 g/l, glucose 10 g/l, MgCl₂.6H₂O 5 g/l, CaCl₂.2H₂O 1.5 g/l, and agar 20 g/l, adjusted to pH 7.2 with 4N HCl. […] After 24 hrs the regeneration plates were overlaid with 3 ml soft agar containing 20 µg/ml thiostrepton (D. Hopwood et al., cited above) and incubated at 30°C for 5 days.
(§2) Another test was carried out using protoplasts of strains S. ramocissimus CBS 190.69 and S. ramocissimus R1V, prepared as described in Example 7. […] Thus protoplasts were plated on regeneration medium (Example 7) containing 0 to 0.1 g/l mocimycin. Under these conditions protoplasts of S. ramocissimu CBS 190.69 were able to regenerate only at mocimycin concentrations below 0.02 g/l; regeneration of S. ramocissimus R1V protoplasts in the presence of up to 0.1 g/l mocimycin occurred with the same efficiency as without mocimycin (Table 2).

[2] = tested on: S. ramocissimus CBS 190.69; test: regeneration of protoplasts on regeneration medium; type: cell-based; conditions: for Regeneration efficiency of protoplasts: regeneration medium
Method: as §1, §2

[3] = target: T1, parent SrEF-Tu from S. ramocissimus CBS 190.69 (Streptomyces ramocissimus, UniProt P29542); test: in vitro poly(U) directed poly(phe) synthesis; type: biochemical
T1 construct: made in house; host or cells: E. coli PM1455
T1 sequence (P29542 whole entry): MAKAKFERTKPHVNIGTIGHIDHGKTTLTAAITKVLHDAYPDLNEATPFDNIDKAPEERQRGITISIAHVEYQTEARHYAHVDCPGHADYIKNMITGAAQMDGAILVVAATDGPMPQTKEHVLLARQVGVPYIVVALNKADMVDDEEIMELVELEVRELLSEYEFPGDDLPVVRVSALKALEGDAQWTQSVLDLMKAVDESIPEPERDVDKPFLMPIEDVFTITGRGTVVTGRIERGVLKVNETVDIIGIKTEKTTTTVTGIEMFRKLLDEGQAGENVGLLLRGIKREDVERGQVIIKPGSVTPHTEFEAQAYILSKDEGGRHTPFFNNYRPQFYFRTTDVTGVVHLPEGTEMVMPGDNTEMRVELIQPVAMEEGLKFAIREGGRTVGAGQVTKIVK
Method: The sensitivity of SrEF-Tu mutants A378V and A378T to elfamycin was tested by in vitro studies. Both parent and mutant S. ramocissimus EF-Tu, after transformation of the respective cloned genes, were expressed in an E. coli strain encoding an elfamycin resistant EF-Tu. Cell-free extracts of these transformants were subsequently tested for elfamycin sensitivity of the translation apparatus, using a variation on the procedure described by C. Glöckner and H. Wolf (cited above). […] The parent SrEF-Tu reached 50% residual activity already at 1.6 mg/l. […]
Plasmids pUSrT1-1, pUSrT1V-1 and pUSrT1T-1 were transformed to E. coli PM1455 (tufA, tufB::Mu, rpoB, recA56; P. van der Meide et al., Eur. J. Biochem. 130 (1983) 409-417); this strain has only one active tuf gene, which encodes an elfamycin resistant EF-Tu. […] The first 4 fractions having absorbance at 260 nm were pooled. […]
At 0°C an incubation mixture was prepared consisting of 40 mM Tris-acetate pH 7.6, 10 mM Mg-acetate, 60 mM NH₄Cl, 5 mM β-mercaptoethanol, 1 mM ATP, 0.025 mM GTP, 2.5 mM phosphoenolpyruvate, 0.25 µg/ml pyruvate kinase, 0.8 mg/ml tRNA, 0.1 mg/ml poly(U), 95 µM phenylalanine, and 3 µCi/ml ³H-phenylalanine (57 Ci/mmol). […] Incorporation of ³H-phenylalanine was analyzed in a liquid scintillation counter. […]

S. ramocissimus R1V [4] = test: germination and growth of spores in liquid YMG medium; type: cell-based; conditions: 5.10⁷ spores/ml, 25 ml YMG medium, shake flasks, 5 days at 30°C
Method: (§3) Spores, mycelium, and protoplasts of strain S. ramocissimus R1V were examined with respect to the minimal inhibitory concentration of mocimycin on their growth properties.
(§4) Spores of strain S. ramocissimus R1V and the control S. ramocissimus CBS 190.69 were inoculated at 5.10⁷ spores/ml in parallel shake flasks containing 25 ml YMG medium and mocimycin at concentrations ranging from 0 to 1 g/l. Incubation was for 5 days at 30°C. For the control strain 0.15 g/l mocimycin inhibited germination (and/or growth) of the spores, whereas spores of S. ramocissimus strain R1V still germinated and grew at mocimycin concentrations up to 0.75 g/l.

[5] = tested on: S. ramocissimus CBS 190.69; test: as above; type: cell-based; conditions: 5.10⁷ spores/ml, 25 ml YMG medium, shake flasks, 5 days at 30°C
Method: as §3, §4

[6] = regeneration medium containing 0 to 0.1 g/l mocimycin

## C/C=C\C=C\[C@@H]1O[C@](O)([C@H](CC)C(=O)NC/C=C/C=C(\C)[C@@H](OC)[C@H](C)[C@@H]2O[C@H](/C=C/C=C/C=C(\C)C(=O)c3c(O)cc[nH]c3=O)[C@H](O)[C@@H]2O)[C@H](O)[C@H](O)C1(C)C [mocimycin, Mocimycin]
S. ramocissimus R1V [1]; [6]
  mocimycin concentration up to which regeneration occurred with the same efficiency as without mocimycin: up to 0.1 g/l
S. ramocissimus R1V [1]; mocimycin 0.01 g/l
  Regeneration efficiency of protoplasts: 100%
S. ramocissimus R1V [1]; mocimycin 0.02 g/l
  Regeneration efficiency of protoplasts: 100%
S. ramocissimus R1V [1]; mocimycin 0.04 g/l
  Regeneration efficiency of protoplasts: 100%
S. ramocissimus R1V [1]; mocimycin 0.07 g/l
  Regeneration efficiency of protoplasts: 90%
S. ramocissimus R1V [1]; mocimycin 0.10 g/l
  Regeneration efficiency of protoplasts: 80%
[2]; [6]
  mocimycin concentrations at which protoplasts were able to regenerate: below 0.02 g/l
[2]; mocimycin 0.01 g/l
  Regeneration efficiency of protoplasts: 40%
[2]; mocimycin 0.02 g/l
  Regeneration efficiency of protoplasts: 0%
[2]; mocimycin 0.04 g/l
  Regeneration efficiency of protoplasts: 0%
[2]; mocimycin 0.07 g/l
  Regeneration efficiency of protoplasts: 0%
[2]; mocimycin 0.10 g/l
  Regeneration efficiency of protoplasts: 0%
[3]; 16 mg/l mocimycin, period of 40 minutes
  efficiency of ³H-phenylalanine incorporation compared to the mocimycin free reaction: ≤ 20%
[3]; S-30 extract of E. coli PM1455 transformant, reaction time 10 minutes
  mocimycin concentration at a residual activity of 50% in the in vitro poly(phe) synthesis: 1.6 mg/L
S. ramocissimus R1V [4]
  mocimycin concentrations at which spores still germinated and grew: up to 0.75 g/l
[5]
  mocimycin concentration that inhibited germination (and/or growth) of the spores: 0.15 g/L

From patent EP0466251A1, “Elfamycin-resistant mutants” (priority 1990, dated 1992)
